Source: publication PMC7864197, “High-Content Analysis-Based Sensitivity Prediction and Novel Therapeutics Screening for c-Met-Addicted Glioblastoma” (Cancers, 2021)

Molecular target: c-Met (MET kinase) (Homo sapiens, UniProt P08581)
Test: ADP-Glo MET kinase enzyme system (in vitro kinase assay)
Format: biochemical

Chain of c-Met (MET kinase) (P08581 25-307): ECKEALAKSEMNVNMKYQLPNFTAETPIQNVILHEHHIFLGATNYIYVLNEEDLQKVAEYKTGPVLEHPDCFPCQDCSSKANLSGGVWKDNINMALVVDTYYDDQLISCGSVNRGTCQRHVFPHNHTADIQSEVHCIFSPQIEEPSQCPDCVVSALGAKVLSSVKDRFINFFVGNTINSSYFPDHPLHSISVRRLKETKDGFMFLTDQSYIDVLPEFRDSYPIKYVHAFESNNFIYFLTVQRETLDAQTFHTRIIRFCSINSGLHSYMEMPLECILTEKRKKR
Chain of c-Met (MET kinase) (P08581 308-1390): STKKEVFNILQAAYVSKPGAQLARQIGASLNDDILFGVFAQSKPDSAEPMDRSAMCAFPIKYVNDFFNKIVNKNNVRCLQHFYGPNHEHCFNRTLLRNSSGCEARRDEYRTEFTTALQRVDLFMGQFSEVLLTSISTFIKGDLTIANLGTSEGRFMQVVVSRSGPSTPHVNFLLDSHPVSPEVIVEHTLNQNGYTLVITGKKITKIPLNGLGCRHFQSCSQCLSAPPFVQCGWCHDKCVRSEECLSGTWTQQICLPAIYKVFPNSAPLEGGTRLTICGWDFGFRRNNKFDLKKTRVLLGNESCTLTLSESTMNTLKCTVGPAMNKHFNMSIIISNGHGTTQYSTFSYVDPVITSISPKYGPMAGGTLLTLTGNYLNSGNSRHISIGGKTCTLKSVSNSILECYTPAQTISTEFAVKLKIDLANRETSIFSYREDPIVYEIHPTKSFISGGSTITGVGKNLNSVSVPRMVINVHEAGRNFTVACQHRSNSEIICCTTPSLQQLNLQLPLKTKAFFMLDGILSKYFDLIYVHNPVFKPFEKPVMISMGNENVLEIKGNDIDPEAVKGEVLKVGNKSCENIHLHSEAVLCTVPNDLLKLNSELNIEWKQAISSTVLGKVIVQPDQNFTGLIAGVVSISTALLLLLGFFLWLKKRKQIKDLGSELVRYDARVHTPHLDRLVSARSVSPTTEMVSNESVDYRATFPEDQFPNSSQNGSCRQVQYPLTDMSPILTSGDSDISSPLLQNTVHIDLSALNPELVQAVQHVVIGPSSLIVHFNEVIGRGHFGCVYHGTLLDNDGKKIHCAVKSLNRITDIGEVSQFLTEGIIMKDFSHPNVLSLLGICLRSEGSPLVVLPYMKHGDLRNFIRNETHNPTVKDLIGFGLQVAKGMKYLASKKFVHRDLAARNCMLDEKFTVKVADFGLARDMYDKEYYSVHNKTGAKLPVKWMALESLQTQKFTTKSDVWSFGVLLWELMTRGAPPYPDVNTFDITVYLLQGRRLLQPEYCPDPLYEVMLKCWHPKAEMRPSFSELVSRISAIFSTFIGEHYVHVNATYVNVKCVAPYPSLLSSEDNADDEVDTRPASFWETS

## CCN1CCN(Cc2ccc(Nc3ncc(F)c(-c4cc(F)c5nc(C)n(C(C)C)c5c4)n3)nc2)CC1 [Abemaciclib]
  ADP-Glo MET kinase enzyme system (in vitro kinase assay): abemaciclib was shown to inhibit kinase activity of c-Met at high concentrations
